From ChEMBL document CHEMBL1201862, “PubChem BioAssay data set” (2004)
The source made the active and inactive calls. Rule as the data show it, for most assays here: actives have a measured AC50 and inactives only a lower limit.

How the values were obtained:
[1] = system: Cryptococcus neoformans; test: PubChem AID 686997; assay type: functional, organism-based
[2] = molecular target: T1, Exodeoxyribonuclease V (Escherichia coli (strain K12), UniProt P04993+P07648+P08394); test: RecBCD inhibition via phage-restricted bacterial growth – absorbance, V66 E. coli, mutant T4 phage, counter-screen for AddAB inhibitor project, dose response (AID 492957); assay type: functional, cell-based, Escherichia coli str. K-12 substr. MG1655
T1 sequence (P04993 whole entry): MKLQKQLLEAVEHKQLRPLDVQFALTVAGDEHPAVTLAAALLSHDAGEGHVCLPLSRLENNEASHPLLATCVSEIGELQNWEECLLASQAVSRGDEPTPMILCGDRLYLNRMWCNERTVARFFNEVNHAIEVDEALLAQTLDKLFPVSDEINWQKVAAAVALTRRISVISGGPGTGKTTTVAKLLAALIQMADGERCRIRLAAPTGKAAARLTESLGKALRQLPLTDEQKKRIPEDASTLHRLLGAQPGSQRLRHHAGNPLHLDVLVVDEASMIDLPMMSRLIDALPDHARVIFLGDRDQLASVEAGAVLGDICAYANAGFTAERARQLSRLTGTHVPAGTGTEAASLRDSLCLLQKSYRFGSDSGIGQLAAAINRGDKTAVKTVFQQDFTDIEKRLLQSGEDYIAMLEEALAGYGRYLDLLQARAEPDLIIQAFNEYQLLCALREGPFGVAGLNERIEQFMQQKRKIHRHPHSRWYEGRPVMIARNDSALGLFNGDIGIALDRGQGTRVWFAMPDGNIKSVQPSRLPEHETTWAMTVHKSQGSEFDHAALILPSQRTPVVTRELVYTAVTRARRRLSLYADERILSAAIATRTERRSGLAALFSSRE
T1 sequence (P07648 whole entry): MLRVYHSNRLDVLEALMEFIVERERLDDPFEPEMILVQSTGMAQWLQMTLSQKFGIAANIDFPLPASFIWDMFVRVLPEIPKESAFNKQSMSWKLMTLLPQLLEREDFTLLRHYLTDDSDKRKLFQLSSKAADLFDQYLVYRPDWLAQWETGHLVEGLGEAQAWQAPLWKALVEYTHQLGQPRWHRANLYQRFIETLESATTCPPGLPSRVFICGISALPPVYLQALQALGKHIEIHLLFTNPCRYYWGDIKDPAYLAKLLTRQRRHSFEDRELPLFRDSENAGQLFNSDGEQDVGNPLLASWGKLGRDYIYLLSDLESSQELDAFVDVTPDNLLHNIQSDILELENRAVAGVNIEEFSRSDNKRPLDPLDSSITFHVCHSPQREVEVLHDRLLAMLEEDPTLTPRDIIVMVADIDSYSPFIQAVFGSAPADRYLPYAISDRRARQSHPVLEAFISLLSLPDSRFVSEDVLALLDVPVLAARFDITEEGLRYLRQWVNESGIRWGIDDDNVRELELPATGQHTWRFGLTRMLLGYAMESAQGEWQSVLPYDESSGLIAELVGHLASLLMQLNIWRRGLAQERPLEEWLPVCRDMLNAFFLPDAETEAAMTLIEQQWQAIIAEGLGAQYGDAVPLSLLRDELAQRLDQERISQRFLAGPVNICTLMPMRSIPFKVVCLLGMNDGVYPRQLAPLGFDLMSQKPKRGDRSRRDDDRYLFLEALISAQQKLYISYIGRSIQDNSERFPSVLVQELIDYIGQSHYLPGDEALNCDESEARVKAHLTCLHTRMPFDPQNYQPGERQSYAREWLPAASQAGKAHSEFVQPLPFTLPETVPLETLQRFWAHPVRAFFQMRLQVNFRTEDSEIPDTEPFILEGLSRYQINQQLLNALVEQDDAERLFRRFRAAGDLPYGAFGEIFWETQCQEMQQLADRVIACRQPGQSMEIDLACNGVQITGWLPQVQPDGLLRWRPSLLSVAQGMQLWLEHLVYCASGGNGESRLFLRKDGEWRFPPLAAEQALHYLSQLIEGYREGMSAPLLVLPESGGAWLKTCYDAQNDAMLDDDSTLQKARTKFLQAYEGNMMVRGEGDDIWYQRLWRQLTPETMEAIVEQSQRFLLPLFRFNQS
T1 sequence (P08394 whole entry): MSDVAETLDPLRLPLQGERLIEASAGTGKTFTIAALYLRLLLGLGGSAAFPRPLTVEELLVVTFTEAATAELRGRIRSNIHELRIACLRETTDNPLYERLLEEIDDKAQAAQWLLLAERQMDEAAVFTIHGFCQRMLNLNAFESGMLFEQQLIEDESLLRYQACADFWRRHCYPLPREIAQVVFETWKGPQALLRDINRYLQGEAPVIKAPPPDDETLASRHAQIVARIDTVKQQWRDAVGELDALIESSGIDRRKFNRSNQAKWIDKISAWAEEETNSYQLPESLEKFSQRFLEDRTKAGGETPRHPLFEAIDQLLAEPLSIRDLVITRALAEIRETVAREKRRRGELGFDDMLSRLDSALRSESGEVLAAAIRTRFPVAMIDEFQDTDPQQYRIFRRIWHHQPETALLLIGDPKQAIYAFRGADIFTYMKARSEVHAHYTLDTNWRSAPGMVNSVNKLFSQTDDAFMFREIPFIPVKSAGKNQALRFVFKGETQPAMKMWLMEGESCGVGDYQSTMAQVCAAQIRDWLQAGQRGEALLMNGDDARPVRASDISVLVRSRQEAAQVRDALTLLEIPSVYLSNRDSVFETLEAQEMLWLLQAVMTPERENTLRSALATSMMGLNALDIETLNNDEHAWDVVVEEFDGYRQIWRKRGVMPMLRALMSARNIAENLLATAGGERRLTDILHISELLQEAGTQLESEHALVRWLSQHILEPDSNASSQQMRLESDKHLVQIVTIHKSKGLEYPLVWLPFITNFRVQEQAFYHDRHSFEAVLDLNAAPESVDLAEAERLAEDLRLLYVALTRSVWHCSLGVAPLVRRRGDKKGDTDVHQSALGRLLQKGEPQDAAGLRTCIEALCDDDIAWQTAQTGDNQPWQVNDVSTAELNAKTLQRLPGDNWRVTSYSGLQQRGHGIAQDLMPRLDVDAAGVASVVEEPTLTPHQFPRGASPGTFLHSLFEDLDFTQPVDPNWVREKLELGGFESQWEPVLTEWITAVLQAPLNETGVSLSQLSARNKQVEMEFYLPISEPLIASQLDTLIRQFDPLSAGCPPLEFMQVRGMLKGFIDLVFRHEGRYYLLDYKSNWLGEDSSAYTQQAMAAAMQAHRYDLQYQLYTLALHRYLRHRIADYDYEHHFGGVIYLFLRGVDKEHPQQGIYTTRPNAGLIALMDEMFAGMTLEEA

[3] = system: INS1; test: INS-1E survival protection against cytokine death – cell-based, luminescence, retest, dose response (AID 449756); assay type: functional; settings: Rattus norvegicus;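 also: cell death triggered by IL-1 beta plus TNF-alpha plus IFN-gamma mixture; protective hits raise ATP signal compared with cytokine alone wells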

Compound: CCOC(=O)c1c(-c2ccc(-c3ccccc3)cc2)csc1NC(=O)CNCCN(C)C
- AC50 [1]: 20.9 µM (active)

Compound: COc1cc(-c2nnc(SCc3cc(=O)oc4cc(O)c(O)cc34)o2)cc(OC)c1OC
- IC50 [2]: > 119 µM (inactive)

Compound: CCCCCCCCCCOC(=O)Cn1c(COc2ccccc2)[n+](C)c2ccccc21
- AC50 [3]: 3.72 µM (active)
